Measured values published in patent publication US12103919B2, “3-(5-oxy)-1-oxoisoindolin-2-yl)piperidine-2,6-dione derivatives and uses thereof” (NOVARTIS AG, priority 2021, dated 2024).
Like-named read-outs stand apart in the source and are kept apart here.

Target: T1, WIZ (Homo sapiens, UniProt O95785+Q96SW2)
T1 construct: expressed in transfected cells
Assay: Quantification of WIZ protein levels in HiBit tag fusion protein assay (293T cells)
Assay type: cell-based
Set-up: Dmax: dose or concentration left out as unconfirmed
Settings: for remaining activity at 25 µM / Dmax at 25 µM / Dmax: HEK-293T; for remaining activity at 25 µM: read-out: WIZ Amax; for Dmax at 25 µM: 100 − Amax; for Dmax at 25 µM / Dmax: read-out: % degradation of WIZ (100 − Amax); for DC50: WIZ HiBit assay in 293T cells, about 18 hours, 10-point 5-fold dilution, top 25 μM, read-out: WIZ AC50
In short: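 293T cells stably carrying a single-copy HiBit-WIZ fusion were exposed to compounds for about 18 hours at 37° C., top concentration 25 μM, 10-point 5-fold series. Lysates were complemented with LgBit and luminescence was read. Amax is the DMSO-normalized, curve-fitted percentage of WIZ-HiBit remaining at 25 uM.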

[1] = DMSO-normalized, curve-fitted percentage of WIZ-HiBit remaining at 25 uM

T1 sequence (O95785 whole entry): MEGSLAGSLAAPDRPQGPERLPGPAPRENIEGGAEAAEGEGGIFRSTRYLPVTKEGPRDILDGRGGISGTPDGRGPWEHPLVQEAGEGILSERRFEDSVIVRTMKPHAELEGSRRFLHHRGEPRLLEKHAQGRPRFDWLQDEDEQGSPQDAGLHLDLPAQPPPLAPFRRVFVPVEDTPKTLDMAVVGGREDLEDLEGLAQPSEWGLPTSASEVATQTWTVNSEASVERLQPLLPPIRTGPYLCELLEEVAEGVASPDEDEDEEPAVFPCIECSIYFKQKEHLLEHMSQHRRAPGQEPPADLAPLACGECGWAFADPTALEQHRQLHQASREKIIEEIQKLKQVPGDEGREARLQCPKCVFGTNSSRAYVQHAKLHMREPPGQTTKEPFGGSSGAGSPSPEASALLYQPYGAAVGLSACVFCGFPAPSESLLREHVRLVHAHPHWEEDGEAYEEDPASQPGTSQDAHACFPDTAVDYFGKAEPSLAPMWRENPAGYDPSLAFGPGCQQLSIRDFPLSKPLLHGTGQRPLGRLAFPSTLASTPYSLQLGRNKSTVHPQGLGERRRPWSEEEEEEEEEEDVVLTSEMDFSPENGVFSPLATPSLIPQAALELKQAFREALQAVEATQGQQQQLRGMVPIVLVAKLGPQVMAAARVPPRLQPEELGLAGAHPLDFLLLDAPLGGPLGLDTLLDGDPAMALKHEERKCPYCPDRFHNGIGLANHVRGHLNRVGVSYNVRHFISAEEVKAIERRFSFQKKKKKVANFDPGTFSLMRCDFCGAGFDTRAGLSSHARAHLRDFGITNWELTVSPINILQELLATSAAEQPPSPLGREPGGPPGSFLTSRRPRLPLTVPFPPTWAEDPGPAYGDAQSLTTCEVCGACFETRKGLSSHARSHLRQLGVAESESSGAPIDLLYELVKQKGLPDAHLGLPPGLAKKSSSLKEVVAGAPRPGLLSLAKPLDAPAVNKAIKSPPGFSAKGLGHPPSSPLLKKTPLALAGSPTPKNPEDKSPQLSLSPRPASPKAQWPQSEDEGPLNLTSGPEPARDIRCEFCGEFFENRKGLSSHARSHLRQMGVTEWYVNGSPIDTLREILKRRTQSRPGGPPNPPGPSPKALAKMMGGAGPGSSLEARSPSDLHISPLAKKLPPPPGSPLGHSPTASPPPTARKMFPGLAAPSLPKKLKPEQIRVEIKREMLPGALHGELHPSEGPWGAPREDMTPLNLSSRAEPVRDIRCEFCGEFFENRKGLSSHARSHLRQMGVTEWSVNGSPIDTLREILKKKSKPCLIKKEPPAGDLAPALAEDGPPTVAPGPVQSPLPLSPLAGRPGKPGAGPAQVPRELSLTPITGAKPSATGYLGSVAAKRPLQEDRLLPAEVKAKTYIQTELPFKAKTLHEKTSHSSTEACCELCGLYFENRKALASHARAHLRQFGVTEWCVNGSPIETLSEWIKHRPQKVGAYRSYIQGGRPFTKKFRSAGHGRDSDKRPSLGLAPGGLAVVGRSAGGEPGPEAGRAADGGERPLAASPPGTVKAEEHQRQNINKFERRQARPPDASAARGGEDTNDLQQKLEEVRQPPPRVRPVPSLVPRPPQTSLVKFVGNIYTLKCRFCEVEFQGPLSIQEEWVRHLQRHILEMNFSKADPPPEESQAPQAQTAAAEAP
T1 sequence (Q96SW2 whole entry): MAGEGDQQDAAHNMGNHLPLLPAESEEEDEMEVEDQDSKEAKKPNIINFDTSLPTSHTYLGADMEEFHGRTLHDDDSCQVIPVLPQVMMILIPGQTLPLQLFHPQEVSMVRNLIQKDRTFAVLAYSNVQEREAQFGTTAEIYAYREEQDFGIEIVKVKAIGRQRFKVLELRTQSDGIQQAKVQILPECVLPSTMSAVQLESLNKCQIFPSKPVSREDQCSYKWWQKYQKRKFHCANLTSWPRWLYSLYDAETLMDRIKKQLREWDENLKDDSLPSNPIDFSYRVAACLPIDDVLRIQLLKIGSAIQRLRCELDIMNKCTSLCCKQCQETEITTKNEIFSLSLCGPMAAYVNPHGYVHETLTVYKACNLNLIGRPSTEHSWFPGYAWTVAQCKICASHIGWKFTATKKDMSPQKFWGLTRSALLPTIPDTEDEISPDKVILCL
T1 sequence (Q16531 whole entry partner): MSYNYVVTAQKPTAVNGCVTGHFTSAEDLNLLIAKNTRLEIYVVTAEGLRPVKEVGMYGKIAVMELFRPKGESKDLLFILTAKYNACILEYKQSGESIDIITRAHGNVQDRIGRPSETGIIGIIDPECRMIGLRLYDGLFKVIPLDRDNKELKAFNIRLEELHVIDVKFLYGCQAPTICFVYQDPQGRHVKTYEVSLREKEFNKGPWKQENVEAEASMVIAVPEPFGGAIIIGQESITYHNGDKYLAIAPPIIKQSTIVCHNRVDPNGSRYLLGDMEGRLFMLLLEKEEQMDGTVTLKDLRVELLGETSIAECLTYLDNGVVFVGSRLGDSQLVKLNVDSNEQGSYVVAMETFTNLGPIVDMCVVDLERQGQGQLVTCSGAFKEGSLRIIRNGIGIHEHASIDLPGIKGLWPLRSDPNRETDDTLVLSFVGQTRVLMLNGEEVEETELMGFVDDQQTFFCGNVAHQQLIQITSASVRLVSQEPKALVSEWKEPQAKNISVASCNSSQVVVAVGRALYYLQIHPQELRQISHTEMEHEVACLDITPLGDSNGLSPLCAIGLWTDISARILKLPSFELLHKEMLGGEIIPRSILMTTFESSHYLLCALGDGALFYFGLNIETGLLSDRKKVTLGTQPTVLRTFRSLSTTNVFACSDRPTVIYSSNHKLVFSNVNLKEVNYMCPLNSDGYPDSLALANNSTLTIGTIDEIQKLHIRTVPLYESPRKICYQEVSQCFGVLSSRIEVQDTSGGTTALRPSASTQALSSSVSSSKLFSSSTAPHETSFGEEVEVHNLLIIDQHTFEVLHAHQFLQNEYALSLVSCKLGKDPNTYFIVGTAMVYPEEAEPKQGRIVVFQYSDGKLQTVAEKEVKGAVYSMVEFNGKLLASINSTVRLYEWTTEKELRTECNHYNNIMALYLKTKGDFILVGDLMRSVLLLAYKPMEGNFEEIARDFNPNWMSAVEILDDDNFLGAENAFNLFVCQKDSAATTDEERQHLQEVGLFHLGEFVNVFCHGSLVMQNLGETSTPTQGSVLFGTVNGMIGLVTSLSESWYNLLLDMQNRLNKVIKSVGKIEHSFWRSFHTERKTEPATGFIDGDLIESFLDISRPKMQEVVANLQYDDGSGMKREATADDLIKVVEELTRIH

remaining activity at 25 µM [1]	Dmax at 25 µM	DC50	SMILES	Dmax	remaining activity at 25 µM
40.1%	59.9%	41.5 nM	CCO[C@@H]1C[C@@H](Oc2ccc3c(c2)CN(C2CCC(=O)NC2=O)C3=O)CN(CC(C)C)C1 (stereo partly drawn) [Example 72, 3-(5-(((3R,5R)-5-ethoxy-1-isobutylpiperidin-3-yl)oxy)-1-oxoisoindolin-2-yl)piperidine-2,6-dione]		
21.9%	78.1%	8.9 nM	CCO[C@@H]1C[C@@H](Oc2ccc3c(c2)CN(C2CCC(=O)NC2=O)C3=O)CN(C(C)C)C1 (stereo partly drawn) [Example 74, 3-(5-(((3R,5R)-5-ethoxy-1-isopropylpiperidin-3-yl)oxy)-1-oxoisoindolin-2-yl)piperidine-2,6-dione]		
13.6%	86.5%	1.1 nM	CC(C)N1C[C@H](C)C[C@@H](Oc2ccc3c(c2)CN(C2CCC(=O)NC2=O)C3=O)C1 (stereo partly drawn) [Example 77, 3-(5-(((3R,5R)-1-isopropyl-5-methylpiperidin-3-yl)oxy)-1-oxoisoindolin-2-yl)piperidine-2,6-dione]		
17.3%	82.7%	1.7 nM	CC(C)CN1C[C@H](C)C[C@@H](Oc2ccc3c(c2)CN(C2CCC(=O)NC2=O)C3=O)C1 (stereo partly drawn) [Example 79, 3-(5-(((3R,5R)-1-isobutyl-5-methylpiperidin-3-yl)oxy)-1-oxoisoindolin-2-yl)piperidine-2,6-dione]		
28.6%	71.4%	23.4 nM	C[C@@H]1C[C@@H](Oc2ccc3c(c2)CN(C2CCC(=O)NC2=O)C3=O)CN(S(C)(=O)=O)C1 (stereo partly drawn) [Example 80, 3-(5-(((3R,5R)-5-methyl-1-(methylsulfonyl)piperidin-3-yl)oxy)-1-oxoisoindolin-2-yl)piperidine-2,6-dione]		
10.7%	89.3%	2 nM	CC(C)N1C[C@H](Oc2ccc3c(c2)CN(C2CCC(=O)NC2=O)C3=O)CC[C@@H]1C (stereo partly drawn) [Example 81, 3-(5-(((3R,6S)-1-isopropyl-6-methylpiperidin-3-yl)oxy)-1-oxoisoindolin-2-yl)piperidine-2,6-dione]		

Further lines, the compound ahead of its results:

SMILES	remaining activity at 25 µM [1]	Dmax at 25 µM	DC50	Dmax	remaining activity at 25 µM
CCO[C@@H]1C[C@@H](Oc2ccc3c(c2)CN(C2CCC(=O)NC2=O)C3=O)CN(S(C)(=O)=O)C1 (stereo partly drawn) [Example 71, 3-(5-(((3R,5R)-5-ethoxy-1-(methylsulfonyl)piperidin-3-yl)oxy)-1-oxoisoindolin-2-yl)piperidine-2,6-dione]	39%	61%	45.3 nM		
CCO[C@@H]1C[C@@H](Oc2ccc3c(c2)CN(C2CCC(=O)NC2=O)C3=O)CN(C2CCC2)C1 (stereo partly drawn) [Example 73, 3-(5-(((3R,5R)-1-cyclobutyl-5-ethoxypiperidin-3-yl)oxy)-1-oxoisoindolin-2-yl)piperidine-2,6-dione]			23.8 nM	62.8%	37.2%
C[C@@H]1C[C@@H](Oc2ccc3c(c2)CN(C2CCC(=O)NC2=O)C3=O)CN(C)C1 (stereo partly drawn) [Example 75-2, 3-(5-(((3R,5R)-1,5-dimethylpiperidin-3-yl)oxy)-1-oxoisoindolin-2-yl)piperidine-2,6-dione]			4 nM	83.5%	16.5%
C[C@@H]1C[C@@H](Oc2ccc3c(c2)CN(C2CCC(=O)NC2=O)C3=O)CN(C2CCC2)C1 (stereo partly drawn) [Example 78, 3-(5-(((3R,5R)-1-cyclobutyl-5-methylpiperidin-3-yl)oxy)-1-oxoisoindolin-2-yl)piperidine-2,6-dione]			0.5 nM	85.7%	14.3%
C[C@H]1CC[C@@H](Oc2ccc3c(c2)CN(C2CCC(=O)NC2=O)C3=O)CN1C1CCC1 (stereo partly drawn) [Example 82, 3-(5-(((3R,6S)-1-cyclobutyl-6-methylpiperidin-3-yl)oxy)-1-oxoisoindolin-2-yl)piperidine-2,6-dione]			0.5 nM	85%	15%
